In the supplement of paper PMC11061612 one finds Bliss excess data, which are given here for four compounds.

Experiment in all cases: Bliss excess, mean over the matrix (fraction); higher = more synergy
Assay [1] concerns NUGC-4 (Gastric Carcinoma). An outline of the steps:
(§1)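 After 24 hours at 37°C and 5% CO2 in 1536-well plates, cells in DMEM/F12 or RPMI plus 10% FBS received two-drug dose matrices for 72 hours. Viability came from CellTiter-Glo 2.0 luminescence and was scaled as inhibition, anchored at 0 by vehicle wells and at 1 by blank wells. Combination Emax is taken as the second-highest inhibition in the matrix, and Bliss excess as the observed combination effect less EA + EB − EA·EB, with EA and EB the single-agent effects.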

A further assay has as its system LOXIMVI (Melanoma). In outline:
as §1

Assay [2] relates to SW1710 (Bladder Carcinoma). An outline of the steps:
as §1

In the next assay the test system is A673 (Ewing's Sarcoma). An outline of the steps: as §1
The test system of assay [3] is NCI-H1568 (Lung Adenocarcinoma). In outline: as §1
Assay [4] relates to SNU-449 (Hepatocellular Carcinoma). An outline of the steps: as §1
In another assay the test system is KS-1 (Glioblastoma). In outline:
as §1

Assay [5] relates to WSU-NHL (B-Cell Non-Hodgkin's Lymphoma). In outline:
as §1

The subject of assay [6] is OE21 (Esophageal Squamous Cell Carcinoma). An outline of the steps: as §1
Assay [7] concerns ALL-PO (B-Lymphoblastic Leukemia). In outline:
as §1

The next assay deals with CAL-72 (Osteosarcoma). An outline of the steps: as §1
The test system of assay [8] is KYAE-1 (Esophageal Adenocarcinoma). In outline:
as §1

Another assay concerns EW-11 (Ewing's Sarcoma). An outline of the steps:
as §1

Assay [9] relates to YAPC (Pancreatic Carcinoma). In outline:
as §1

For assay [10], the system named is NCI-H209 (Small Cell Lung Carcinoma). In outline:
as §1

Another assay concerns MPP-89 (Mesothelioma). In outline:
as §1

For assay [11], the system named is SAS (Oral Cavity Carcinoma). In outline:
as §1

A further assay deals with BPH-1 (Non-Cancerous). An outline of the steps: as §1
Assay [12] concerns ESS-1 (Other Solid Carcinomas). An outline of the steps:
as §1

The test system of assay [13] is HH (T-Cell Non-Hodgkin's Lymphoma). An outline of the steps: as §1

With `CN(CCO)CC[C@H](CSc1ccccc1)Nc1ccc(S(=O)(=O)NC(=O)c2ccc(N3CCC([C@@H](O)c4ccccc4-c4ccc(Cl)cc4)CC3)cc2)cc1S(=O)(=O)C(F)(F)F` [AZD4320] + Cc1cc2ncnn2cc1Nc1ncc2c(n1)n(C1CCOCC1)c(=O)n2C [AZD7648] (first compound max 1 µM, 7x7, partner max 10 µM), the Bliss excess in assay [1] is -0.0725; with LOXIMVI (Melanoma), 0.023; in assay [2], -0.058; with A673 (Ewing's Sarcoma) it was 0.0069; in assay [3], -0.0325; in assay [4], -0.0811. In addition, the Bliss excess is 0.0033 in the assay on KS-1 (Glioblastoma); -0.0087 in assay [5]; -0.0187 in assay [6]; 0.0085 in assay [7]; 0.0278 in the assay with CAL-72 (Osteosarcoma); -0.0461 in assay [8]. The Bliss excess with EW-11 (Ewing's Sarcoma) is -0.0468; in assay [9], -0.0465; in assay [10] it was 0.0477; with MPP-89 (Mesothelioma), -0.0105; in assay [11] it was -0.0533; in the assay on BPH-1 (Non-Cancerous) it was -0.0325. Further, the Bliss excess was -0.0373 in [12] and -0.0459 in assay [13].

As to `COc1cc2c(cc1OCCCCCOc1cc3c(cc1OC)C(=O)N1C=C(C)C[C@H]1C=N3)N=C[C@@H]1CC(C)=CN1C2=O` [SG3199] + O=C(c1cc(Cc2n[nH]c(=O)c3ccccc23)ccc1F)N1CCN(C(=O)C2CC2)CC1 [Olaparib] (first compound max 0.001 µM, 7x7, partner max 10 µM), the Bliss excess in assay [1] is -0.0134; in the assay on LOXIMVI (Melanoma), -0.0599; in assay [2], -0.0334; with A673 (Ewing's Sarcoma) it was -0.0556; in [3], -0.077; in assay [4] it was -0.0647. Moreover, the Bliss excess with KS-1 (Glioblastoma) is -0.0482; in [5], -0.0156; in assay [6], -0.0537; in [7] it was -0.0276; with CAL-72 (Osteosarcoma), -0.0565; in [8] it was -0.0195. Besides, the Bliss excess is -0.051 in the assay on EW-11 (Ewing's Sarcoma); -0.0534 in assay [9]; 0.0051 in assay [10]; -0.0391 in the assay on MPP-89 (Mesothelioma); -0.03 in assay [11]; 0.0391 in the assay on BPH-1 (Non-Cancerous). In addition, the Bliss excess in [12] was -0.0118; in assay [13], -0.0344.

On to `CN(CCO)CC[C@H](CSc1ccccc1)Nc1ccc(S(=O)(=O)NC(=O)c2ccc(N3CCC([C@@H](O)c4ccccc4-c4ccc(Cl)cc4)CC3)cc2)cc1S(=O)(=O)C(F)(F)F` [AZD4320] + C[C@@H]1COCCN1C2=NC(=NC(=C2)C3(CC3)[S@](=N)(=O)C)C4=C5C=CNC5=NC=C4 [AZD6738] (first compound max 1 µM, 7x7, partner max 10 µM), for which the Bliss excess in assay [1] is -0.0172; with LOXIMVI (Melanoma), 0.0028; in assay [2], -0.0455; in the assay on A673 (Ewing's Sarcoma), 0.028; in [3], -0.0135; in [4], -0.0721. For the same compound, the Bliss excess in the assay with KS-1 (Glioblastoma) was 0.0082; in assay [5], -0.104; in assay [6], 0.0053; in assay [7], 0.0019; with CAL-72 (Osteosarcoma), 0.05; in assay [8], 0.0036. Besides, the Bliss excess is 0.012 in the assay with EW-11 (Ewing's Sarcoma); -0.0423 in [9]; 0.0545 in assay [10]; -0.0163 in the assay with MPP-89 (Mesothelioma); -0.0255 in assay [11]; -0.0979 with BPH-1 (Non-Cancerous). In addition, the Bliss excess in [12] was -0.0296; in [13], -0.0454.

Take `Cc1cc2ncnn2cc1Nc1ncc2c(n1)n(C1CCOCC1)c(=O)n2C` [AZD7648] + CN(C)CCCOc1ccc(-c2ccc3ncc4c(c3c2)n(C2CCOCC2)c(=O)n4C)cn1 [AZD0156] (first compound max 10 µM, 7x7, partner max 1 µM): the Bliss excess in [1] was 0.0034; in the assay with LOXIMVI (Melanoma), -0.0141; in assay [2] it was -0.01; with A673 (Ewing's Sarcoma), -0.0142; in assay [3], -0.0213; in assay [4], -0.0457. Moreover, the Bliss excess with KS-1 (Glioblastoma) is -0.068; in assay [5], -0.0531; in assay [6], -0.0629; in [7], 0.0524; in the assay with CAL-72 (Osteosarcoma), -0.0908; in assay [8] it was 0.0007. Besides, the Bliss excess is -0.0549 in the assay with EW-11 (Ewing's Sarcoma); -0.0126 in assay [9]; 0.048 in assay [10]; 0.0139 in the assay with MPP-89 (Mesothelioma); 0.0623 in assay [11]; 0.0049 in the assay on BPH-1 (Non-Cancerous). Besides, the Bliss excess in [12] is 0.0364; in assay [13], -0.0338.
